Earlier results in patent US20160034667A1, “TAILORED DRUG THERAPIES AND METHODS AND SYSTEMS FOR DEVELOPING SAME” (COMPANION DX REFERENCE LAB, LLC, priority 2014, published 2016).
Where two headings read alike, the source gives them in different places.

What was measured:
[1] = tested on: NSCLC patients with drug-sensitive EGFR mutations
[2] = tested on: molecularly unselected NSCLC patients; details: FIG. 8 (A)
[3] = not given; remark: listed apart in the source
[4] = target: CYP2D6 (Homo sapiens, UniProt P10635)
CYP2D6, sequence (P10635 whole entry): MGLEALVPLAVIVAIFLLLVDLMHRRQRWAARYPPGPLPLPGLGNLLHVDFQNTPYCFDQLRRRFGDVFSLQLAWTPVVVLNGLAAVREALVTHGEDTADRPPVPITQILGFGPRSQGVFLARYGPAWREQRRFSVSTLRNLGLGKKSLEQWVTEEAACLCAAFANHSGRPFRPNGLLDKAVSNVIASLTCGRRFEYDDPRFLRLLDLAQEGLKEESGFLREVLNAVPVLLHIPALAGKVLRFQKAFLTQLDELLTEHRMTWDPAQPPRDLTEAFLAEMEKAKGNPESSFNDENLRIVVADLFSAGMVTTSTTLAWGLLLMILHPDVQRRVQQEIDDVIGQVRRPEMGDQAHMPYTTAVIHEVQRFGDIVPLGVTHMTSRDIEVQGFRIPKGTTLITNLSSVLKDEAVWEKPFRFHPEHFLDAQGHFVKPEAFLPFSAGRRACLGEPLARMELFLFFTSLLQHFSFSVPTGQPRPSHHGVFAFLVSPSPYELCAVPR

[5] = printed on the line of the peak range
[6] = printed on the line of the trough range

Molecule	Critical (in vivo)	Therapeutic Range (in vivo)	t1/2 (in vivo)	further results
CC(=O)Nc1ccc(O)cc1 [Acetaminophen]	>40 mg/L	10 to 25 mg/L	1 to 3 h	–
NCC[C@H](O)C(=O)N[C@@H]1C[C@H](N)[C@@H](O[C@H]2O[C@H](CN)[C@@H](O)[C@H](O)[C@H]2O)[C@H](O)[C@H]1O[C@H]1O[C@H](CO)[C@@H](O)[C@H](N)[C@H]1O [Amikacin]	>40 mg/L	–	2.5 h	Therapeutic Range, peak: peak 20-30 mg/L,; Therapeutic Range, trough: trough 1-8 mg/L
NC(=O)N1c2ccccc2C=Cc2ccccc21 [Carbamazepine]	>15 mg/L	8 to 12 mg/L	10 to 48 h	–
C[C@H]1O[C@@H](O[C@H]2[C@@H](O)C[C@H](O[C@H]3[C@@H](O)C[C@H](O[C@H]4CC[C@@]5(C)[C@H](CC[C@@H]6[C@@H]5C[C@@H](O)[C@]5(C)[C@@H](C7=CC(=O)OC7)CC[C@]65O)C4)O[C@@H]3C)O[C@@H]2C)C[C@H](O)[C@@H]1O [Digoxin]	–	–	33 to 51 h	–
CCN(CC)CC(=O)Nc1c(C)cccc1C [Lidocaine]	>8.0 mg/L	1.5 to 5 mg/L	–	–
[Li] [Lithium]	>2.0 mmol/L	0.5 to 1.5 mmol/L	19 h	–
CCN(CC)CCNC(=O)c1ccc(NC(C)=O)cc1 [NAPA, N-acetylprocainamide]	–	–	6 to 12 h	–
CCC1(c2ccccc2)C(=O)NC(=O)NC1=O [Phenobarbital]	–	–	72 to 100 h	–
O=C1NC(=O)C(c2ccccc2)(c2ccccc2)N1 [Phenytoin]	>25 mg/L	10 to 20 mg/L	6 to 24 h	–
CCC1(c2ccccc2)C(=O)NCNC1=O [Primidone]	>15 mg/L	5 to 12 mg/L	6 to 12 h	–
C=C[C@H]1C[N@@]2CC[C@H]1C[C@@H]2[C@@H](O)c1ccnc2ccc(OC)cc12 [Quinidine]	>7 mg/L	–	–	–
O=C(O)c1ccccc1O [Salicylate]	>450 mg/L	100 to 300 mg/L	2 to 19 h	–
Cn1c(=O)c2[nH]cnc2n(C)c1=O [Theophylline]	–	10 to 20 mg/L	3 to 9 h	–
NC[C@H]1O[C@H](O[C@H]2[C@H](O)[C@@H](O[C@H]3O[C@H](CO)[C@@H](O)[C@H](N)[C@H]3O)[C@H](N)C[C@@H]2N)[C@H](N)C[C@@H]1O [Tobramycin]	–	–	2 h	Therapeutic Range, peak: peak 4-10 mg/L,; Critical [5]: >12 mg/L,; Critical [6]: >5 mg/L; Therapeutic Range, trough: trough 0.5-1.5 mg/L
CCCC(CCC)C(=O)O [Valproic acid]	>200 mg/L	50 to 100 mg/L	8 to 15 h	–
CN[C@H](CC(C)C)C(=O)N[C@H]1C(=O)N[C@@H](CC(N)=O)C(=O)N[C@H]2C(=O)N[C@H]3C(=O)N[C@H](C(=O)N[C@H](C(=O)O)c4cc(O)cc(O)c4-c4cc3ccc4O)[C@H](O)c3ccc(c(Cl)c3)Oc3cc2cc(c3O[C@@H]2O[C@H](CO)[C@@H](O)[C@H](O)[C@H]2O[C@H]2C[C@](C)(N)[C@H](O)[C@H](C)O2)Oc2ccc(cc2Cl)[C@H]1O [Vancomycin]	–	–	5.0 to 6.5 h	Therapeutic Range, peak: peak 30-40 mg/L,; Critical [5]: >50 mg/L,; Critical [6]: >15 mg/L; Therapeutic Range, trough: trough 5-15 mg/L
C#Cc1cccc(Nc2ncnc3cc(OCCOC)c(OCCOC)cc23)c1 [erlotinib]	–	–	–	response in patients with drug-sensitive EGFR mutations at Exon 19 and 21 [1]: significantly better response
COc1cc2ncnc(Nc3ccc(F)c(Cl)c3)c2cc1OCCCN1CCOCC1 [gefitinib, Gefitinib]	–	–	–	progression free survival rate [2]: no detectable change; reduction of area under the curve of gefitinib ([3]; co-medication with CYP3A4 inducer rifampin): 83%; exposure to gefitinib ([3]; co-medication with CYP3A4 inhibitor (intraconazole), health men): increases exposure; inhibition of CYP2D6 activity [4]: weak inhibitor
Gentamicin	>12 mg/L	–	2 h	Therapeutic Range, peak: peak 4-10 mg/L,; Therapeutic Range, trough: trough 1-2 mg/L
